In US8357692B2, “Methods of treatment of bone degenerative diseases” (Washington University, priority 2010, dated 2013):
“Also recorded” adds a separate entry of the source. Where two headings read alike, the source gives them in different places.

What was measured:
P. falciparum FCR-3 = settings: cited from earlier work; for antimalarial activity and selectivity in words: against P. falciparum in vitro
FM3A mouse mammary cells = settings: cited from earlier work
osteoblasts = experiment: BrdU incorporation in osteoblasts; assay type: cell-based, mice; settings: 10 ng/ml, 24 hours, IL-17 receptor WT and KO osteoblasts
Procedure: To test the function of IL-17 signaling in the osteoblast, the inventors first determined the IL-17 receptor is expressed in osteoblasts, and its expression is unaffected by TNFα or IL-17 stimulation. Primary osteoblasts were stimulated with vehicle control, IL-17 (10 ng/ml), TNF (5 ng/ml), or a combination of the two for 24 hours, and RT-PCR for the IL-17 receptor and actin was performed (FIG. 6). Next the inventors cultured BMMs in combination with primary osteoblasts, Vitamin D, and varying IL-17 concentrations. Osteoblasts were lifted, then osteoclasts were fixed and TRAP stained. […] Primary osteoblasts were stimulated with IL-17 or vehicle control for 24 hours, and RT-PCR was performed using primers for RANKL or actin. […] IL-17 receptor WT and KO osteoblasts were cultured with IL-17 (10 ng/ml) and BrdU for 24 hours, after which BrdU incorporation was measured by absorptiometry.

[1] = system: coculture of bone marrow macrophages (BMMs) with osteoblasts; experiment: Osteoclast formation in coculture of bone marrow macrophages with osteoblasts; assay type: cell-based, mice; settings: BMMs with primary osteoblasts, Vitamin D, varying concentrations
Procedure: Calvaria osteoblast isolation and culture: Whole calvaria were extracted from 3-4 day old pups and cleaned of soft and periostial tissue. Osteoblasts were liberated by 3×20 minute collagenase treatment at 37 degrees, shaking. Osteoblasts were transduced with appropriate virally expressed proteins when 50% confluent, selected with the appropriate antibiotic for 4 days, then plated for experiments. For cocultures, BMMs were cultured for 4 days prior to being lifted and then cultured with osteoblasts in α-MEM media containing pen/strep, 10% FBS and 10 nM VitD3, plus IL-17 or other cytokines where indicated.
To test whether IL-17 signaling is important in the pathogenesis of osteoporosis, the inventors mimicked the most common human form of osteoporosis, that of estrogen deficiency, by removing ovaries (ovx) in mice. […] Four weeks later, Micro-CT, a sensitive and specific measure of bone volume, was used to assess trabecular Bone Volume per Total Volume measured in the distal femora. […] Ovariectomized mice (n=5-7 mice per group) were treated with IL-17 blocking antibody or isotype control for two and four weeks and distal femora were analyzed by micro-CT.
To test the function of IL-17 signaling in the osteoblast, the inventors first determined the IL-17 receptor is expressed in osteoblasts, and its expression is unaffected by TNFα or IL-17 stimulation. […]

RANKL = experiment: RT-PCR for RANKL in primary osteoblasts; assay type: cell-based, mice; settings: 24 hours
Procedure: RT-PCR: RNA was isolated using RNeasy kits (Qiagen); RLT lysis buffer was supplemented with β-mercaptoethanol (1%). Purified RNA was treated with DNase I (Invitrogen; Carlsbad, Calif.) prior to reverse transcription (RT). RT was performed using SuperScript III (Invitrogen). A negative control using RNA not subjected to reverse transcription was included in each assay. Quantitative PCR (qPCR) was performed using Applied Biosystems's (Foster City, Calif.) Power SYBR green master mix and gene specific primers. The qPCR reaction was run on Applied Biosystem's ABI Prism 7000. Transcript levels were normalized to cyclophilin.
To test the function of IL-17 signaling in the osteoblast, the inventors first determined the IL-17 receptor is expressed in osteoblasts, and its expression is unaffected by TNFα or IL-17 stimulation. Primary osteoblasts were stimulated with vehicle control, IL-17 (10 ng/ml), TNF (5 ng/ml), or a combination of the two for 24 hours, and RT-PCR for the IL-17 receptor and actin was performed (FIG. 6). Next the inventors cultured BMMs in combination with primary osteoblasts, Vitamin D, and varying IL-17 concentrations. Osteoblasts were lifted, then osteoclasts were fixed and TRAP stained. […] IL-17 receptor WT and KO osteoblasts were cultured with IL-17 (10 ng/ml) and BrdU for 24 hours, after which BrdU incorporation was measured by absorptiometry.

[2] = system: ovariectomy-induced bone loss; experiment: Ovariectomy-induced bone loss in mice, micro-CT of distal femora; assay type: in vivo
[3] = healthy male volunteers, cited from earlier work
collagen α1(I) = settings: cited from earlier work
Body composition by MRI = assay type: in vivo, mice; settings: 12 weeks of treatment, versus PBS
Procedure: MRI: Measurements of body composition were performed using the magnetic resonance imaging facility located at the Animal Model Research Core at Washington University (CNRU grant NIB P30 DK56341).
IL-17A inhibits adipocyte differentiation from human mesenchymal stem cells (Shin et al., Biochem. Pharmacol., 77(12), 1835-1844, 2009). IL17R−/− mice are heavier and have higher leptin levels, which is a marker of adopocyte mass (Galic et al., Mol. Cell Endocrinol., 316(2), 129-139, 2010; Goswami et al., Eur J Immunol, 39(10), 2831-2839, 2009). Leptin can stimulate IL-17 production (Liu et al., Br. J. Ophthalmol., 92(4), 557-561, 2008), and blood IL-17 levels are increased in obese women (Sumarac-Dumanovic et al., Int. J. Obes. (Lond), 33(1), 151-156, 2009). […] Eight week old mice (n=6 mice per group) were treated with Halofuginone or PBS for 12 weeks, after which body content was measured using MRI.

[4] = system: IL-17 production and TH17 cell differentiation; settings: cited from earlier work
[5] = system: CD4+ T-cells producing IL-17 (Th17 cells); experiment: Flow cytometry of spleen cells for CD4+ T-cells producing IL-17; assay type: in vivo; settings: ovx mice treated daily for two weeks
serum CTx = experiment: Serum CTx ELISA in ovariectomized mice; assay type: in vivo; settings: ovx mice treated daily, two weeks, relative to sham operated mice
bone formation = experiment: Bone formation assay (calcein double labeling); assay type: in vivo; settings: mice treated daily for 14 days, versus PBS control
Procedure: Bone formation assay (calcein double labeling): Mice were injected with 7.5 mg/kg calcein (Sigma-Aldrich; St. Louis, Mo.). Five days later mice were injected again, and tibias were harvested after an additional 2 days for histologic analysis. Dynamic assessment of trabecular bone formation was determined on non-decalcified sections using BioQuant software (Bioquant; Nashville, Tenn.). This software provided measures of bone surface, percent single-(sLS/BS) and double-labeled (dLS/BS) bone surface, mineralizing surface (MS/BS), mineral apposition rate (MAR), and bone formation rate (BFR/BS). Trabecular bone measurements were taken from a region encompassing a 500 μm-long field, across the width of the bone (located 100 μm below the growth plate). For each animal, 2 serial sections were analyzed and the measurements averaged. Pictures were obtained using an Olympus 1×51 fluorescent microscope fitted with Olympus DP70 camera (Olympus; Center Valley, Pa.).
Since Halofuginone inhibits type I collagen synthesis by fibroblasts and other cells, bone formation rates were tested to determine whether the rates are reduced in mice treated with the chemical. Mice were treated daily with HL or vehicle control for 14 days, while Calcein was injected on day 7 and 12, and Mineral Apposition Rates (MAR) and Bone Formation Rates (BFR) were determined.

fibrosis accumulation = settings: rat urethral stricture, cirrhosis, pulmonary fibrosis models; cited from earlier work
[6] = Table 1, against P. falciparum FCR-3, in vitro, read-out: EC50 (M) antimalarial activity
[7] = read-out: EC50 (M) cytotoxicity, Table 1, against FM3A mouse mammary cells
[8] = Table 2, against P. falciparum FCR-3, in vitro, read-out: EC50 (M) antimalarial activity
[9] = read-out: EC50 (M) cytotoxicity, Table 2, against FM3A mouse mammary cells

## O=c1c2ccccc2ncn1CC1(O)C[C@@H]2NCCC[C@@H]2O1 (stereo partly drawn) [compound 2, isofebrifugine]
P. falciparum FCR-3; [6]
  EC50: 3.4e-09 M
FM3A mouse mammary cells
  EC50: 1.8e-07 M

## O=C(C[C@H]1NCCC[C@@H]1O)Cn1ccc2ccccc2c1=O [compound 14]
P. falciparum FCR-3; [6]
  EC50: 5e-07 M
FM3A mouse mammary cells; [7]
  EC50: > 1.6e-05 M

## O=c1c2ccccc2ccn1CC1(O)C[C@@H]2NCCC[C@@H]2O1 (stereo partly drawn) [compound 15]
P. falciparum FCR-3; [6]
  EC50: 2.1e-06 M
FM3A mouse mammary cells
  EC50: > 6.3e-06 M

## CCN(CC)CCCC(C)Nc1ccnc2cc(Cl)ccc12 (stereo not drawn) [chloroquine]
P. falciparum FCR-3; [6]
  EC50: 1.8e-08 M
FM3A mouse mammary cells; [7]
  EC50: 3.2e-05 M

## CNc1ccccc1C(=O)N[C@H]1C(O)=C[C@@H]2[C@@H](O)CCCN2C1(C)C [compound 39]
P. falciparum FCR-3; [8]
  EC50: 6e-07 M
FM3A mouse mammary cells; [9]
  EC50: > 1.7e-05 M

## O=C(C[C@H]1NCCC[C@@H]1O)Cn1cnc2ccccc2c1=O [compound 1, febrifugine]
P. falciparum FCR-3; [6]
  EC50: 7e-10 M
FM3A mouse mammary cells; [7]
  EC50: 1.7e-07 M

## O=C(C[C@H]1NCCC[C@@H]1O)Cn1cnccc1=O [compound 12]
P. falciparum FCR-3; [6]
  EC50: 6e-07 M
FM3A mouse mammary cells; [7]
  EC50: > 1.9e-05 M

## IL-17: interleukin-17, cytokine promoting osteoclast formation, added to cultures
osteoblasts
  osteoblast proliferation (BrdU incorporation): does not affect osteoblast proliferation
[1]
  osteoclast formation: potently induced osteoclast formation
RANKL
  RANKL mRNA expression in the osteoblast: induced by IL-17

## CC1(C)[C@@H](N2CNc3ccccc3C2=O)C(O)=C[C@@H]2[C@@H](O)CCCN21 [compound 38]
P. falciparum FCR-3; [8]
  EC50: 4.2e-07 M
FM3A mouse mammary cells; [9]
  EC50: > 1.6e-05 M

## O=C(C[C@@H]1NCCC[C@H]1O)Cn1cnc2cc(Br)c(Cl)cc2c1=O [Halofuginone, 7-Bromo-6-chloro-3-[3-[(2S,3R)-3-hydroxy-2-piperidinyl]-2-oxopropyl]-4-quinazolinone]
[2]; four weeks after ovariectomy, daily injection
  Connectivity Density: completely protected
[2]; four weeks post-ovx
  ovariectomy-induced bone loss: lost significantly less bone than PBS injected mice; also recorded: protects from ovariectomy-induced bone loss; also recorded: lose significantly less bone
[2]; ovx mice, daily treatment, four weeks, relative to sham
  BV/TV, BV, connectivity density, trabecular thickness, and trabecular number: but not in Halofuginone treated ovx mice relative to sham
[2]; ovx mice, daily treatment, two weeks
  Bone volume per total volume (BV/TV): significantly lower in vehicle treated ovx mice compared with either sham or Halofuginone treated ovx mice
[2]; two weeks post-ovx
  ovariectomy-induced bone loss: lost significantly less bone than PBS treated mice; also recorded: protects from ovariectomy-induced bone loss; also recorded: lose significantly less bone
[3]; daily oral dose
  maximal tolerated dose: 1.5 mg
[3]; oral, 1.5 to 2.5 mg
  tolerability: moderately tolerated
[3]; single oral doses of 0.07 and 0.5 mg
  tolerability of single oral doses: safe and well tolerated
Collagen α1(I)
  Collagen type II or III: not inhibited
Collagen α1(I); variety of cells
  collagen α1(I) mRNA and protein levels: inhibits collagen α1(I) mRNA and protein levels
Body composition by MRI
  percent body fat: reduced percent body fat
  percent lean mass: small but statistically significant increase
  total fat mass: significantly less total fat mass
[4]; at concentrations that inhibit IL-17 production
  TGFβ inhibition: no TGFβ inhibition is seen
[4]
  IL-17 production and TH17 cell differentiation: inhibits IL-17 production and TH17 cell differentiation
[5]
  percentage of CD4+ T-cells producing IL-17: reduces Th17 cells; also recorded: significantly reduced
Serum CTx
  serum CTx: reduces serum CTx; also recorded: blunted, non-statistically significant, increase
Bone formation
  bone formation rates: does not affect bone formation; also recorded: equivalent bone formation rates
Fibrosis accumulation
  fibrosis accumulation: inhibit fibrosis accumulation

## O=c1c2ccccc2ncn1CC(O)C[C@H]1NCCC[C@@H]1O (stereo partly drawn) [compound 8]
P. falciparum FCR-3; P. falciparum in vitro, read-out: EC50, in vitro antimalarial activity
  EC50: 2e-08 M
P. falciparum FCR-3
  antimalarial activity and selectivity in words: strongly active and selective
FM3A mouse mammary cells; [7]
  EC50: 1.5e-05 M

## O=C(CC1NCCCC1=O)Cn1cnc2ccccc2c1=O (stereo not drawn) [compound 7]
P. falciparum FCR-3; [6]
  EC50: 2e-08 M
P. falciparum FCR-3
  antimalarial activity and selectivity in words: potential antimalarial activity with high selectivity
FM3A mouse mammary cells; [7]
  EC50: 1e-05 M

## O=c1ccncn1CC1(O)C[C@@H]2NCCC[C@@H]2O1 (stereo partly drawn) [compound 13]
P. falciparum FCR-3; [6]
  EC50: 4e-08 M
FM3A mouse mammary cells
  EC50: 7e-06 M

## C[C@@H]1CC[C@H]2[C@@H](C)C(=O)O[C@@H]3O[C@@]4(C)CC[C@@H]1[C@]32OO4 [artemisinin]
P. falciparum FCR-3; [6]
  EC50: 1e-08 M
FM3A mouse mammary cells
  EC50: 1e-05 M
